Results: US20090233957A1, “(-)-BELOXEPIN AND METHODS FOR ITS SYNTHESIS AND USE” (priority 2008, published 2009)
pIC50, pKi: −log10 of the molar value.

How the values were obtained:
[1] = biological target: T1, cloned human NE transporter (hNET) (Homo sapiens, UniProt P23975); test: NE transporter binding assay, [3H]nisoxetine; details: membranes of CHO cells expressing hNET; read-out: NET Ki
T1 construct: expressed in transfected cells; host or cells: CHO cells
Experimental: Protocols. For the NE transporter binding assay, [^3H]nisoxetine (1.0 nM) was incubated with various concentrations of test compounds for 2 hours at 4° C. with membranes prepared from Chinese hamster ovary cells (CHO) cells heterologously expressing the cloned human NE transporter (hNET). Bound radioactivity was determined by scintillation spectroscopy.

[2] = biological target: T2, cloned human 5HT2A receptor (Homo sapiens, UniProt P28223); test: 5HT2A receptor binding assay, [3H]ketanserin; details: HEK-293 membranes
T2 construct: expressed in transfected cells; host or cells: HEK-293 cells
T2 sequence (P28223 whole entry): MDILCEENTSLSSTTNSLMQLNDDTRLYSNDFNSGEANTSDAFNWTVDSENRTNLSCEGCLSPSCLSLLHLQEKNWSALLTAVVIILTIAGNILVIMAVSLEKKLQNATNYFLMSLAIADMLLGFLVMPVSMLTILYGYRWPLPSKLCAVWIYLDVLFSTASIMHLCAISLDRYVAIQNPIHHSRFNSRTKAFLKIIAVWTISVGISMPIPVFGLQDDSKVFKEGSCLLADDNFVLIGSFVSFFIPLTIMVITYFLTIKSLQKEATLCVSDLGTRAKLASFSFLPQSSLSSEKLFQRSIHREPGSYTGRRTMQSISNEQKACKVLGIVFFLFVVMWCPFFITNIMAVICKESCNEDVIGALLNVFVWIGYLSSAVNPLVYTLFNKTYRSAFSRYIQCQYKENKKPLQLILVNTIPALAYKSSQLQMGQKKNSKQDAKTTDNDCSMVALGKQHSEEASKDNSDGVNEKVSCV
Experimental: For the 5HT2A receptor binding assay, [^3H]ketanserin (0.5 nM) was incubated for 60 min at 22° C. with membranes prepared from HEK-293 cells heterologously expressing the cloned human 5-HT2A receptor according to the method of Bonhaus et al., 1995, Brit. J. Pharmacol. 115:622-628. Various concentrations of test compound were added and bound radioactivity was determined by scintillation counting. Non-specific binding was determined in the presence of 1.0 μM unlabeled ketanserin. The Ki value for the test compound was determined using standard methods.

[3] = biological target: T2, cloned human 5HT2A receptor; test: 5HT2A functional assay, intracellular Ca2+ in HEK-293 cells; type: cell-based
Experimental: (§1) Agonist effects at the 5HT2A receptor were assessed by incubation at 22° C. of a series of concentrations of test compound with intact HEK-293 cells heterologously expressing the cloned human 5HT2A receptor and measuring intracellular [Ca^2+] by fluorimetry according to the method of Jerman et al., 2001, Eur. J. Pharmacol. 414:23-30). Antagonist effects were assessed by the ability of a series of concentrations of test compound to block the increase in intracellular [Ca^2+] that occurred in the presence of 3.0 nM serotonin under the same conditions. EC50 and IC50 values were determined using standard methods.

[4] = biological target: T3, cloned human 5HT2B receptor (Homo sapiens, UniProt P41595); test: 5HT2B receptor binding assay, [125I]DOI; details: CHO membranes
T3 construct: expressed in transfected cells; host or cells: CHO cells
T3 sequence (P41595 whole entry): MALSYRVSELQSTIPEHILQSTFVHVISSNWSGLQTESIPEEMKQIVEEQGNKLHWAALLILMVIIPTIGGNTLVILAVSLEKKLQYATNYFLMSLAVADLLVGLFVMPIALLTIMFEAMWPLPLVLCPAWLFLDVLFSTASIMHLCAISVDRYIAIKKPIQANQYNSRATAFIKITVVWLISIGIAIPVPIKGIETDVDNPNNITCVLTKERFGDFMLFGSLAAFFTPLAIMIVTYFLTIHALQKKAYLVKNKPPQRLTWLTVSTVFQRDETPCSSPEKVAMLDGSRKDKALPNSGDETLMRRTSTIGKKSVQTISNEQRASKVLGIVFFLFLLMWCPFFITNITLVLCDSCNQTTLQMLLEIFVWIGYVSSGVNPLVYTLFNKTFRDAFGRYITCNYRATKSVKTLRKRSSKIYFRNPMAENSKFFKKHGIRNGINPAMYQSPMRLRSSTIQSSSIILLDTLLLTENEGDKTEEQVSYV
Experimental: For the 5HT2B receptor binding assay, [^125I](±)[…] (DOI) (0.2 nM) was incubated for 15 min at 37° C. with membranes prepared from Chinese hamster ovary cells heterologously expressing the cloned human 5HT2B receptor according to the method of Choi et al., 1994, FEBS Lett 352:393-399. Various concentrations of test compound were added and bound radioactivity was determined by scintillation counting. Non-specific binding was determined in the presence of 1.0 μM unlabeled DOI. The Ki value for the test compound was determined using standard methods.

[5] = biological target: T3, cloned human 5HT2B receptor; test: 5HT2B functional assay, intracellular Ca2+ in CHO cells; type: cell-based
Experimental: as §1, with “5HT2B” for “5HT2A”, “CHO” for “HEK-293”, “Porter” for “Jerman”, “1991, Brit.” for “2001, Eur.”, “128:13-20.” for “414:23-30).”, “0.3” for “3.0”

[6] = biological target: T4, cloned human 5HT2C receptor (Homo sapiens, UniProt P28335); test: 5HT2C receptor binding assay, [3H]mesulergine; details: CHO membranes
T4 construct: expressed in transfected cells; host or cells: CHO cells
T4 sequence (P28335 33-458): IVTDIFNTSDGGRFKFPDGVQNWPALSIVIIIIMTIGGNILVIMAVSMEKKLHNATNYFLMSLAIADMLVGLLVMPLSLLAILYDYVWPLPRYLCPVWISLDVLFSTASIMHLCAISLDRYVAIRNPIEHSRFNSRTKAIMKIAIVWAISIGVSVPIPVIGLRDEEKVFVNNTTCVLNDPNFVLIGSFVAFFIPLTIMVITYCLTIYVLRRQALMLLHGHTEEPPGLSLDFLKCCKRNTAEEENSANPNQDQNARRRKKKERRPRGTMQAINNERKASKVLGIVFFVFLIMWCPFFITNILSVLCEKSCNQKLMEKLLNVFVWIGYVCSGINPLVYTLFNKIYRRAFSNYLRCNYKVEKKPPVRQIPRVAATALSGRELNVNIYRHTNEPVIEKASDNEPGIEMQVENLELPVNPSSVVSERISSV
Experimental: For the 5HT2C receptor binding assay, [^3H]mesulergine (1.0 nM) was incubated for 60 min at 37° C. with membranes prepared from Chinese hamster ovary cells heterologously expressing the cloned human 5-HT2C receptor according to the method of Stam et al., 1994, Eur. J. Pharmacol. 269:339-348. Various concentrations of test compound were added and bound radioactivity was determined by scintillation counting. Non-specific binding was determined in the presence of 10 μM RS102221. The Ki value for the test compound was determined using standard methods.

[7] = biological target: T4, cloned human 5HT2C receptor; test: 5HT2C functional assay, intracellular Ca2+ in CHO cells; type: cell-based
Experimental: as §1, with “5HT2C” for “5HT2A”, “CHO” for “HEK-293”, “414:23-30.” for “414:23-30).”

human recombinant CYP2D6 = biological target: T5, human recombinant CYP2D6 (Homo sapiens, UniProt P10635); test: CYP2D6 inhibition, MAMC substrate; type: in vitro ADME
T5 construct: purchased BD Bioscience
T5 sequence (P10635 whole entry): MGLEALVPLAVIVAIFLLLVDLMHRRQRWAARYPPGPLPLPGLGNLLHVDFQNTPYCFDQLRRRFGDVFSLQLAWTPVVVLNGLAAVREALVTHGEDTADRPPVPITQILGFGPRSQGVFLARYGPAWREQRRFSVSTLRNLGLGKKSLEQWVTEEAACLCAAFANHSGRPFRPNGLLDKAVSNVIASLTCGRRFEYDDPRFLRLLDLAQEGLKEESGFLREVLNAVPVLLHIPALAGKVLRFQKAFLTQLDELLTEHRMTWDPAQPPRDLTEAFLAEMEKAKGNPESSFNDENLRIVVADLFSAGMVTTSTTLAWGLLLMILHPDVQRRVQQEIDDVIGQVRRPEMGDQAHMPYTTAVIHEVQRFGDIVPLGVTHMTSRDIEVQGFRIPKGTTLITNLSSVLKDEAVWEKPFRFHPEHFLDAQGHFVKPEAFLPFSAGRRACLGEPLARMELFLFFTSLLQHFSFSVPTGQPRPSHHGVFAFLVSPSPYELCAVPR
Experimental: Protocol. […] The source of the enzyme was microsomes containing human recombinant CYP2D6 obtained from BD Bioscience. Conversion of MAMC to 7-hydroxy-4-(aminomethyl)coumarin was measured using a PerkinElmer Fusion with a 390 nm excitation filter and a 460 nm emission filter.

[8] = system: noradrenaline reuptake in synaptosomes from rat and primate brain; details: published reports; cited from earlier work
5HT2C receptor = biological target: T6, 5HT2C receptor (Homo sapiens, UniProt P28335); details: published report; cited from earlier work
T6 sequence (P28335 33-458): T4 sequence (P28335 33-458)

[9] = system: noradrenergic, histaminergic and cholinergic receptors; details: published report; cited from earlier work
[10] = system: animal models of depression; details: preclinical; cited from earlier work
human volunteers = details: 25-400 mg, cited from earlier work
[11] = single doses of 10 to 500 mg; cited from earlier work
[12] = cited from earlier work
[13] = system: patients hospitalized for depression; details: phase IIA; cited from earlier work
major depression = details: human, in vivo; cited from earlier work
[14] = in vivo; cited from earlier work
[15] = antagonist mode, vs 3.0 nM serotonin

T1 sequence (P23975 whole entry): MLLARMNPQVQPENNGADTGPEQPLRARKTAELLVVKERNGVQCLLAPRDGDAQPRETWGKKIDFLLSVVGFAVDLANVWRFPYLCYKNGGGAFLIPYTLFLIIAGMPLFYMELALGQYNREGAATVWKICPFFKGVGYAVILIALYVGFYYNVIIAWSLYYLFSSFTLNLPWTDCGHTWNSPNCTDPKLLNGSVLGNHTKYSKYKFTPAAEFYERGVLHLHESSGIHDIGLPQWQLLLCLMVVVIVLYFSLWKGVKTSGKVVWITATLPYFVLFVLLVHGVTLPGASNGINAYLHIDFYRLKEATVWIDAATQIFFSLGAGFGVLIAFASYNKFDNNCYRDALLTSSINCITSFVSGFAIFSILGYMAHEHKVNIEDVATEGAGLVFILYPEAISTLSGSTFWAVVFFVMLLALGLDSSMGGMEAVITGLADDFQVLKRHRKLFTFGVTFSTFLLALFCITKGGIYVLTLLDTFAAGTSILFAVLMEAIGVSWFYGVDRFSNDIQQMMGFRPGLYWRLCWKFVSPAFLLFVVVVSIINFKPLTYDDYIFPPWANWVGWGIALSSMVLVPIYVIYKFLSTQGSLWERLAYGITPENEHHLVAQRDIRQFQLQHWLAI

Cc1cccc2c1Oc1ccccc1C1(O)CCN(C)CC21 (racemic) [(±)-beloxepin, cis-1,2,3,4,4a,13b-hexahydro-2,10-dimethyldiben-[2,3:6,7]oxepino[4,5c]pyridine-4a-ol]]
pKi [1]: 6.15
pKi [2]: 6.36
5HT2A functional activity type [3]: antagonist
pIC50 [3, 15]: 5.28
pKi [4]: 6.00
5HT2B functional activity type [5]: antagonist
pIC50 ([5]; antagonist mode, vs 0.3 nM serotonin): < 5.00
pKi [6]: 6.08
5HT2C functional activity type [7]: antagonist
pIC50 [7, 15]: < 5.00
pIC50 (human recombinant CYP2D6): 6.27
less affinity for other monoamine carriers (serotonin and dopamine transporters) than for noradrenaline reuptake [8]: greater than 100 fold
affinity for the 5HT2C receptor (5HT2C receptor): modest affinity
affinity for noradrenergic, histaminergic and cholinergic receptors [9]: no or very weak affinity
antidepressant properties [10]: offsetting acquired immobility behavior, reserpine-induced hypothermia, and conditioned avoidance behavior
side effects [10]: did not cause sedation, motor impairment or other untoward side effects
effect on REM sleep (human volunteers; acutely and sub-chronically): dose-dependently prolonged REM latency
side effects (human volunteers): No sedation or other side effects were observed
tmax [11]: one to four
tmax, steady state ([12]; doses of 50 to 800 mg, healthy subjects): 1.17 h
adverse effects ([12]; healthy volunteers, up to 800 mg/day): No important adverse effects were observed
fraction of patients with a moderate to good response (HAMD score reduction) [13]: ⅔
efficacy in major depression (major depression): insufficient efficacy
logBB [14]: 0.82
